In patent publication US20170305894A1, “PPAR AGONISTS, COMPOUNDS, PHARMACEUTICAL COMPOSITIONS, AND METHODS OF USE THEREOF” (priority 2014, published 2017):

What was measured:
[1] = tested on: C57BL6J mice, thermal injury to the TA; assay: Acute pharmacological activation of PPARδ in freeze burn (thermal) injury of the TA muscle; type: in vivo
Description: TA muscles were injured according to previously published methods with a few modifications (Brack et al., Science 317(5839):807-810 (2007)). A stainless steel 1 g weight (Mettler-Toledo) equilibrated to the temperature of dry ice was placed directly on the exposed TA for 10 seconds. Following the thermal injury, incision was closed using VetBond (3M). All injury procedures were performed on the left leg, and the right leg was used as control.
(Hamer et al., J Anat 200(Pt 1):69-79 (2002)). Sterile 1% w/v Evans Blue dye in PBS was intraperitoneally injected at 1% volume relative to the body mass of an animal. Seven hours after the injection, injured TA muscles were harvested and snap-frozen by isopentane quenching in liquid nitrogen. Frozen sections were cut in 10 μm thickness, fixed in ice-cold acetone, dipped in xylene and mounted with DPX. Proportion of the stained area over the total area was measured using ImageJ software.
50 mg/kg body weight of BrdU (Sigma) was injected intraperitoneally as solution of 10 mg/mL BrdU in saline. TA muscles were harvested at 7 days after injury and processed for paraffin sections as described above. BrdU incorporation was visualized using the BrdU Labeling and Detection Kit I (Roche) and BrdU+ nuclei were counted and represented as a proportion of total nuclei in a field.
Whole or partial tissues were homogenized by Polytron probe homogenizer in Trizol reagent (Invitrogen). Total RNA was extracted from the homogenates according to the manufacturer's protocol. One microgram of DNase-treated total RNA was reverse transcribed using Superscript II Reverse Transcriptase (Invitrogen) according to the manufacturer's instructions. cDNAs were diluted 1/40 with ddH2O and used as templates in RT-QPCR reactions with SYBRGreenER qPCR SuperMix detection system (Invitrogen). Samples were prepared in technical triplicates and relative mRNA levels were calculated by using the standard curve methodology and normalized against GAPDH mRNA levels in the same samples.

[2] = tested on: FGF1a promoter; assay: Luciferase reporter assay of FGF1a promoter co-transfected with PPARδ; type: cell-based; conditions: with or without the ligand
From the text: FIGS. 3A-3G illustrate that PPARδ regulates FGF1a to promote micro-vascularization. *P<0.05; **P<0.01. All error bars are SEM. FIG. 3A provides immunofluorescence staining for CD31 on transverse sections of uninjured TA from WT and TG animals. FIG. 3B provides quantification of CD31 positive capillary number (n=4). FIG. 3C illustrates the FGF1a mRNA level in TA of WT and TG by QPCR (n=5). FIG. 3D provides a Western blot for FGF1. FIG. 3E provides immunofluorescence staining for CD31 positive capillaries on transverse sections of TA, 5 days after the injury (n=3). FIG. 3F provides quantification for CD31 positive capillaries on transverse sections of TA, 5 days after the injury (n=3). FIG. 3G provides luciferase reporter assays of FGF1a promoter co-transfected with PPARδ with or without the ligand, GW501516.
Increased vasculature is one of the hallmarks of oxidative myofibers, which facilitates introduction of immune cells and also supports increased number of satellite cells. TG animals show increased expression of FGF1 in TA muscle (FIG. 3D). Upon injury, TG animals maintain high expression of FGF1 expression (FIG. 3D). […] Furthermore, after the injury, TG animals show increased expression of CD31, which is indicative of increased vascularity (FIGS. 3E-F). […] Therefore, increased vascularity may contribute to the accelerated regenerative process observed in VP16-PPARδ animals.

Structure (SMILES): Cc1cc(SCc2sc(-c3ccc(C(F)(F)F)cc3)nc2C)ccc1OCC(=O)O [GW501516]
- initial inflammatory responses (inflammatory marker genes) ([1]; 12 hours after the injury, with or without ligand): similarly generated
- expressions of inflammatory marker genes by QPCR ([1]; 3 days after the injury): significantly reduced
- reduction in the proportion of stained area ([1]; 5 days after the injury, versus vehicle, orally 5 mg/kg): 34.7%
- expression of PPARδ target genes (PDK4, CPT1b, and catalase) in TA by QPCR ([1]; 9 day treatment, orally 5 mg/kg): Up-regulation
- myoblast proliferation (BrdU positive nuclei) ([1]; BrdU injection at 48 hours after the injury): promoted myoblast proliferation
- increase in the number of quiescent satellite cells ([1]; after 9 days or 4 weeks of ligand treatment): not observed
- Evans Blue dye uptake, proportion of muscle cross sectional area (CSA) stained ([1]; orally 5 mg/kg for 4 days prior to and 5 days after injury, 5 days after the injury, vehicle 7.6%): 4.9%
- FGF1a promoter luciferase reporter activity [2]: induction of FGF1a
